Measurements taken from paper PMC11351453 (BMC Chemistry, 2024).

What was measured:
[1] = tested on: A549 cells; assay: cells; assay type: cell-based; conditions: Homo sapiens, A549, 72 h, read-out: IC50 A549
[2] = tested on: H1975 cells; assay: AO staining analysis; assay type: cell-based; conditions: T001-10027877 0.5, 1, 2 µM, AZD9291 1 µM

C=CC(=O)Nc1cc(Nc2nccc(-c3cn(C)c4ccccc34)n2)c(OC)cc1N(C)CCN(C)C [AZD9291]
IC50 [1]: 4.95 µM | cell morphology / induction of apoptosis (AO staining) [2]: induced significant shrinkage of the cell membrane
